# Biological target: Potassium voltage-gated channel subfamily A member 5 (Homo sapiens, UniProt P22460)
# Test: Inhibition of human Kv1.5 channel expressed in mouse L929 cells
# Potassium voltage-gated channel subfamily A member 5, sequence (P22460 whole entry): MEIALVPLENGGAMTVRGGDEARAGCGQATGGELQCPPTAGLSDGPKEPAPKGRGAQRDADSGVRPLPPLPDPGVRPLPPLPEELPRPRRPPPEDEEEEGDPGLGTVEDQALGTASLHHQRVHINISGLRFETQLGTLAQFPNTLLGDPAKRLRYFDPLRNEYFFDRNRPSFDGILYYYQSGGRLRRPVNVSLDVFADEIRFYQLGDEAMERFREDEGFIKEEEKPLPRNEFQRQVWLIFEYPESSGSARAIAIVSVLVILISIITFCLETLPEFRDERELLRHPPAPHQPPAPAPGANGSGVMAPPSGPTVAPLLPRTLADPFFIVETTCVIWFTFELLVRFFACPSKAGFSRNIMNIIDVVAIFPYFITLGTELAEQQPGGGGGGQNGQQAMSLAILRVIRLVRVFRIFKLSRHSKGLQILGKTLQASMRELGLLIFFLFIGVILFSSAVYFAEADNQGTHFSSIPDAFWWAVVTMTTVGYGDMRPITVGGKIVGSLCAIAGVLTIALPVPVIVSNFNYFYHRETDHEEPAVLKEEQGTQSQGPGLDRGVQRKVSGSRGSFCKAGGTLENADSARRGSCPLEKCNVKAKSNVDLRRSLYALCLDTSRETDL
row,SMILES,IC50 [nM]
1,"CC1=Nc2ccnn2C(c2ccc(Cl)c(Cl)c2)C1C(=O)N1CCCC1c1cccnc1 (centres undefined) [(7-(3,4-dichlorophenyl)-5-methyl-4,7-dihydropyrazolo[1,5-a]pyrimidin-6-yl)(2-(pyridin-3-yl)pyrrolidin-1-yl)methanone]",> 1000
2,"CC1=Nc2ccnn2C(c2ccc(Cl)c(Cl)c2)C1C(=O)N1CCC[C@H]1c1nnc[nH]1 (stereo partly drawn) [((S)-2-(4H-1,2,4-triazol-3-yl)pyrrolidin-1-yl)(7-(3,4-dichlorophenyl)-5-methyl-4,7-dihydropyrazolo[1,5-a]pyrimidin-6-yl)methanone]",> 1000
3,"CC1=Nc2ccnn2C(c2ccc(Cl)c(Cl)c2)C1C(=O)N1CCC[C@H]1c1n[nH]c(=O)n1C (stereo partly drawn) [3-((2S)-1-(7-(3,4-dichlorophenyl)-5-methyl-4,7-dihydropyrazolo[1,5-a]pyrimidine-6-carbonyl)pyrrolidin-2-yl)-4-methyl-1H-1,2,4-triazol-5(4H)-one]",> 1000
4,"CC1=Nc2ccnn2C(c2ccc(Cl)c(Cl)c2)C1C(=O)N1CCC[C@H]1c1nnc(N)s1 (stereo partly drawn) [((S)-2-(5-amino-1,3,4-thiadiazol-2-yl)pyrrolidin-1-yl)(7-(3,4-dichlorophenyl)-5-methyl-4,7-dihydropyrazolo[1,5-a]pyrimidin-6-yl)methanone]",> 1000
5,"CC1=Nc2ccnn2C(c2ccc(Cl)c(Cl)c2)C1C(=O)N1CCC[C@H]1c1nnn[nH]1 (stereo partly drawn) [((S)-2-(1H-tetrazol-5-yl)pyrrolidin-1-yl)(7-(3,4-dichlorophenyl)-5-methyl-4,7-dihydropyrazolo[1,5-a]pyrimidin-6-yl)methanone]",> 1000

# The next compounds have a lower IC50 than those just listed; values first:
row,IC50 [nM],SMILES
1,150,"CC1=Nc2ccnn2C(c2ccc(Cl)c(Cl)c2)C1C(=O)N1CCCC1c1ccccc1 (centres undefined) [(7-(3,4-dichlorophenyl)-5-methyl-4,7-dihydropyrazolo[1,5-a]pyrimidin-6-yl)(2-phenylpyrrolidin-1-yl)methanone]"
2,660,"CC1=Nc2ccnn2C(c2ccc(Cl)c(Cl)c2)C1C(=O)N1CCCC1c1ccccn1 (centres undefined) [(7-(3,4-dichlorophenyl)-5-methyl-4,7-dihydropyrazolo[1,5-a]pyrimidin-6-yl)(2-(pyridin-2-yl)pyrrolidin-1-yl)methanone]"
3,150,"COC(=O)[C@@H]1CCCN1C(=O)C1C(C)=Nc2ccnn2C1c1ccc(Cl)c(Cl)c1 (stereo partly drawn) [(2S)-methyl 1-(7-(3,4-dichlorophenyl)-5-methyl-4,7-dihydropyrazolo[1,5-a]pyrimidine-6-carbonyl)pyrrolidine-2-carboxylate]"
4,70,"CC1=Nc2ccnn2C(c2ccc(Cl)c(Cl)c2)C1C(=O)N1CCCC1c1ccc(F)cc1 (centres undefined) [(7-(3,4-dichlorophenyl)-5-methyl-4,7-dihydropyrazolo[1,5-a]pyrimidin-6-yl)(2-(4-fluorophenyl)pyrrolidin-1-yl)methanone]"
